Test results from ChEMBL document CHEMBL3352201, “P21-Activated Kinase 4 (PAK4) Inhibitors as Potential Cancer Therapy” (ACS Med Chem Lett, 2015).

Key:
[1] = target: Serine/threonine-protein kinase PAK 4 (Homo sapiens, UniProt O96013); assay: Inhibition of human recombinant PAK4 kinase domain assessed as phosphorylation of FRET peptide substrate at Ser/Thr20 by […] assay
[2] = target: Serine/threonine-protein kinase PAK 1 (Homo sapiens, UniProt Q13153); assay: Inhibition of human recombinant PAK1 kinase domain assessed as phosphorylation of FRET peptide substrate at Ser/Thr20 by […] assay
Serine/threonine-protein kinase PAK 1, sequence (Q13153 whole entry, the tested form may be a part): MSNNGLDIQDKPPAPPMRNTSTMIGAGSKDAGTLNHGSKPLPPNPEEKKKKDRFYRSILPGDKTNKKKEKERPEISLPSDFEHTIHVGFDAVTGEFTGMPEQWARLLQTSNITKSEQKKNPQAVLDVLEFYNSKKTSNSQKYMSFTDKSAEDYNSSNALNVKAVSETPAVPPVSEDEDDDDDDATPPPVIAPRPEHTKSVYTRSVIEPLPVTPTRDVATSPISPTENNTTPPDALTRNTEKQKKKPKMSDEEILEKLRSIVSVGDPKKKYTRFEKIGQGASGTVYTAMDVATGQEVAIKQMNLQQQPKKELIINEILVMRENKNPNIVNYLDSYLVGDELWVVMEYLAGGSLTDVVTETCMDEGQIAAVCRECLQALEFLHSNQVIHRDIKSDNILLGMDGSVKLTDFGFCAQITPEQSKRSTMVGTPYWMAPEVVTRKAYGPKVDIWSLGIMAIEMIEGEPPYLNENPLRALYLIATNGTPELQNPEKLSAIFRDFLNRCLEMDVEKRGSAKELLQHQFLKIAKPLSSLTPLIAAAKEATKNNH

Serine/threonine-protein kinase PAK 4, sequence (O96013 whole entry, the tested form may be a part): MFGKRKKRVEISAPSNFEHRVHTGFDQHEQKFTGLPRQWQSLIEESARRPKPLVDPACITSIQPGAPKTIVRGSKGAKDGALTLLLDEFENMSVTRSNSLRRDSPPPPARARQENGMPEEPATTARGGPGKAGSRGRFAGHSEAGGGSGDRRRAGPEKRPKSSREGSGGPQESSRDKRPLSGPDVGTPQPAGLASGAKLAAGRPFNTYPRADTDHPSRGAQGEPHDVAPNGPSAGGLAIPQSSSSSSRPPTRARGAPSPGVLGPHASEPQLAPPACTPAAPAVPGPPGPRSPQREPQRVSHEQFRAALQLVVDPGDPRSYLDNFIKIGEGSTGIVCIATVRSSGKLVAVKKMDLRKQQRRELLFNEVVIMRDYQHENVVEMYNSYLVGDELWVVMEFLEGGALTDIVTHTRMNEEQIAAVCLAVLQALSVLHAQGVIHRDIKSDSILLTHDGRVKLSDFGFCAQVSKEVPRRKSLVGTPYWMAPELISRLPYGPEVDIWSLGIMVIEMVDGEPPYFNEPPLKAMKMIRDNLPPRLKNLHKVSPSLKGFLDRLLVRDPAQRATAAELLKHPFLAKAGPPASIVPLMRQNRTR

| SMILES | IC50 [1] [nM] | IC50 [2] [nM] |
| --- | --- | --- |
| COCCNc1nc2ccc(C#CC3(O)CCCCC3)cc2n1-c1ccnc(N)n1 | 4.77 |  |
| CCNc1nc2ccc(C#CC(C)(C)O)cc2n1-c1ncnc(N)n1 | 65.5 | 9600 |
| CCNc1nc2ccc(C#C[C@@](C)(O)c3cc(C)on3)cc2n1-c1ncnc(N)n1 | 5.3 | > 4500 |
| CNc1nc2ccc(C#C[C@@](C)(O)c3cc(C)on3)cc2n1-c1ncnc(N)n1 | 35.5 | > 4500 |
